Results reported in BindingDB's records for doi:10.1038/nchembio.2208 (Novartis Pharma, 2016).

What was measured:
[1] = biological target: T1, Kallikrein-7 [37-253,Y180R] (Homo sapiens, UniProt P49862, Y180R); test: Human KLK7 Fluorescence-Lifetime Assay; settings: pH 5.6; 25 °C
T1 construct: 37-253
Protocol: The enzyme reaction was initiated by addition of the substrate Ac-[…]PT14)-Glu-NH2 (0.8 μM; Biosyntan, Berlin, Germany, product BS-#7599). Fluorescence-lifetime measurements were conducted on an Ultra Evolution fluorescence lifetime reader (TECAN, M nnedorf, Switzerland). The excitation light source was a semiconductor laser at 405 nm, producing picosecond light pulses with a selected repetition frequency of 10 MHz. The emission was collected through a 450 nm bandpass filter with 25 nm bandwidth. The measurement time per well was set to 1 s, yielding approximately 1,000 counts in the peak channel. The parameters used as assay readout were the mono-exponential lifetimes.

[2] = biological target: T2, Complement factor D [24-253] (Mus musculus, UniProt P03953); test: Complement FD Thioesterolysis Assay; settings: pH 7.5; 25 °C
T2 construct: 24-253
T2 sequence (P03953 whole entry): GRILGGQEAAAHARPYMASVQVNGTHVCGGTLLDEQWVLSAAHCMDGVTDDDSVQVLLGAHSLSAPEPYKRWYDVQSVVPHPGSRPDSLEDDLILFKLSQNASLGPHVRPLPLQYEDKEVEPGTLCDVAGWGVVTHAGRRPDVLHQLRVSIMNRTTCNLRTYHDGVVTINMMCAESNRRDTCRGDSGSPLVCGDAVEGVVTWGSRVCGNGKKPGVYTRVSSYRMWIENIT

[3] = biological target: T3, Complement factor B [470-764] (UniProt P00751); test: Human FB Proteolysis Assay (ELISA C3a); settings: pH 7.4; 4 °C
T3 construct: 470-764
T3 sequence (P00751 470-764): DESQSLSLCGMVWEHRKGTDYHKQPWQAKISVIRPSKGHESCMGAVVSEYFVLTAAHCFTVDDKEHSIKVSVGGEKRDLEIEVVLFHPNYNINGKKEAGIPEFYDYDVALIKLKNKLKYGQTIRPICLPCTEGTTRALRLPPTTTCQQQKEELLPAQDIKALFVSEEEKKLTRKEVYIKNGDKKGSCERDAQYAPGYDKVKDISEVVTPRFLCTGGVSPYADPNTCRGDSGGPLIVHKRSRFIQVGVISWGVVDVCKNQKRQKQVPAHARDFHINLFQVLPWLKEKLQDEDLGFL
Protocol: The enzyme reaction was started by addition of C3 diluted in the assay buffer to a final concentration of 1 μM.

[4] = biological target: T4, Complement factor D [24-253] (Homo sapiens, UniProt P00746); test: Complement FD Thioesterolysis Assay; settings: pH 7.5; 25 °C
T4 construct: 24-253
T4 sequence (P00746 24-253): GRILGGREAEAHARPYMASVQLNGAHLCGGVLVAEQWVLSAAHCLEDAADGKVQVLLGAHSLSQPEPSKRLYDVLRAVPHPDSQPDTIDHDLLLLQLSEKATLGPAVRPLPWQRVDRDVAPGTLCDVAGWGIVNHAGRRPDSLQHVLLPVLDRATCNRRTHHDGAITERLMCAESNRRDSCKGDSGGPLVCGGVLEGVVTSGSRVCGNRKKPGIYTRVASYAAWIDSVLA

T1 sequence (P49862 37-253 Y180R): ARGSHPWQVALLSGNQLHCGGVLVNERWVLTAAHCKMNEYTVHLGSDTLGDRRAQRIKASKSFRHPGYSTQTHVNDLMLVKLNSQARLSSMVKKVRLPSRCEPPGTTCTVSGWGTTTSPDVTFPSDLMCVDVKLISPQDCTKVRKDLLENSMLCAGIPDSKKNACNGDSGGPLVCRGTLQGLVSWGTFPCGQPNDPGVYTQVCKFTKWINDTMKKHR

| Structure (SMILES) | IC50 [1] | IC50 [2] | IC50 [3] | IC50 [4] |
| --- | --- | --- | --- | --- |
| NC(=O)c1nn(CC(=O)N2[C@@H]3C[C@@H]3C[C@H]2C(=O)Nc2cccc(Br)n2)c2ccccc12 [1-(2-((1R,3S,5R)-3-((6-Bromopyridin-2-yl)carbamoyl)-2-azabicyclo[3.1.0]hexan-2-yl)-2-oxoethyl)-1H-indazole-3-carboxamide (7)] | > 100 µM | – | – | – |
| C[C@@H](NC(=O)[C@@H]1C[C@H]2C[C@H]2N1C(=O)Cn1nc(C(N)=O)c2ccncc21)c1cccc(Cl)c1F [1-(2-((1R,3S,5R)-3-(((R)-1-(3-Chloro-2-fluorophenyl)ethyl)carbamoyl)-2-azabicyclo[3.1.0]hexan-2-yl)-2-oxoethyl)-1H-pyrazolo[3,4-c]pyridine-3-carboxamide (6)] | > 100 µM | 0.86 µM | > 100 µM | – |
| NC(=O)c1cc2cc(OCc3cccc(C(=O)O)c3)ccc2[nH]1 [3-(((2-Carbamoyl-1H-indol-5-yl)oxy)methyl)benzoic acid (4)] | – | – | > 100 µM | – |
| COc1ccc(CCNC(=O)[C@@H]2CCCN2C(=O)NCc2cccc3ccccc23)cc1 [(S)-N2-(4-methoxyphenethyl)-N1-(naphthalen-1-ylmethyl)pyrrolidine-1,2-dicarboxamide (1)] | 0.7 µM | – | – | > 30 µM |

The next lines start with the values.

| IC50 [1] | IC50 [2] | IC50 [3] | IC50 [4] | Structure (SMILES) |
| --- | --- | --- | --- | --- |
| > 100 µM | – | > 100 µM | 5.8 µM | Cn1cc(NC(=O)N2CCC[C@H]2C(=O)NC(c2ccccc2)c2ccccc2)c2ccccc21 [(S)-N2-benzhydryl-N1-(1-methyl-1H-indol-3-yl)pyrrolidine-1,2-dicarboxamide (5)] |
| 8.7 µM | – | > 100 µM | – | COC(=O)c1ccccc1CNC(=O)N1CCC[C@H]1C(=O)Nc1cccc(OC(F)(F)F)c1 [Methyl (S)-2-((2-((3-(trifluoromethoxy)phenyl)carbamoyl)pyrrolidine-1-carboxamido)-methyl)benzoate (2)] |
